Assay results published in patent US5672603A, “Apoptosis regulating composition” (Otsuka Pharmaceutical Co., Ltd., priority 1991, dated 1997).
Numbered stars: 1 amine (or outer) side, 2 acyl side, 3 side chain; on linkers, the order of the positions; unused ones are H or OH. Bridge positions count the residues as written; N and C are the ends. Square brackets hold non-standard residues; d marks the D form. Peptide text beside a SMILES is read from it. I, II: the chains in the order shown. Actinocin(9to1) = Cc1c2oc3c(C)ccc(C(=O)[*:1])c3nc-2c(C(=O)[*:2])c(N)c1=O; NMeV = CN[C@H](C(=O)O)C(C)C; Sar = CNCC(=O)O

What was measured:
HL-60 cells [1] = assay: Induction of differentiation of HL-60 cells (CD11b expression, flow cytometry); type: cell-based, human; parameters: reference not given here; conditions: 30 μg/ml; 3 days; CD11b fluorescence
Method: (§1) HL-60 cells were cultivated in RPMI-1640 medium supplemented with 10% of FCS at 37° C. under 5% CO2, and the cell concentration was adjusted to 5×10^4 cells/ml.
(§2) Then, the above-mentioned medium containing 30 μg/ml of each test compound was added to each well of 6-well microplates (Costar), followed by 3 days of incubation at 37° C. under 5% CO2. In a control group, the above medium alone was added and incubation was performed in the same manner. Thereafter, each cultured cell suspension was sampled into an Eppendorf tube and, after staining with 0.2% trypan blue-containing phosphate buffer, viable cells were counted using a hematocytometer.
The above cells were adjusted to 1×10^7 cells/ml. To 100 μl of the cell suspension was added 5 μl of a solution of fluorescein isothiocyanate (FITC)-labeled anti-human CD11b antibody (Mol; Coulter) and the reaction was allowed to proceed on ice in the dark for 30 minutes. Then, cells were washed twice with PBS (phosphate-buffered saline; Nissui Pharmaceutical) containing 0.1% of BSA (bovine serum albumin; Sigma), finally suspended in 500 μl of the BSA-containing PBS and measured for fluorescence intensity by flow cytometry using Profile II (Coulter).

HL-60 cells [2] = assay: HL-60 cell growth inhibition, 3 days; type: cell-based; conditions: Homo sapiens, HL-60, 72 h, 30 μg/ml, read-out: Cell growth inhibiting effect (%)
Method: as §1, §2

[3] = tested on: small intestine crypt cells; conditions: literature; cited from earlier work
apoptosis = conditions: literature; cited from earlier work
lymphocytic tumor cells = conditions: X-ray radiation; literature; cited from earlier work
HL-60 cells [4] = conditions: literature; cited from earlier work
sympathetic nerve cells = conditions: literature; cited from earlier work
nerve cells = conditions: administration in advance; literature; cited from earlier work
[5] = tested on: aged rats with learning disorder; conditions: literature; cited from earlier work
PC12 cells = assay: Effect on PC12 cells (morphology, phase contrast microscope); conditions: NGF alone group, 0.3% FCS
Method: PC12 cells subcultured in Dulbecco's modified Eagle's medium (D-MEM) supplemented with 5% heat-inactivated (56° C., 30 minutes) horse serum and 10% fetal calf serum (FCS) were transferred onto collagen-coatedplastic Petri dishes (35 mm in diameter) at a concentration of 6×10^4 cells/3 ml medium.

acute leukemia cells = conditions: literature; cited from earlier work

Q: Which “Induction of differentiation promoting effect” value (HL-60 cells [1]) does the source give for `COc1ccc(C(=O)N2CCN(c3ccc4c(c3)NC(=O)CC4)CC2)cc1OC` [Compound 4, 7-[4-(3,4-Dimethoxybenzoyl)-1-piperazinyl]-3,4-dihydrocarbostyril] here?
A: The value was 383.

Q: Which inhibition at 30 µg/mL (HL-60 cells [2]) does the source give for `COc1cc(C(=O)N2CCN(c3ccc4c(c3)CCC(=O)N4)CC2)cc(OC)c1OC` [Compound 2, 6-[4-(3,4,5-Trimethoxybenzoyl)-1-piperazinyl]-3,4-dihydrocarbostyril] here?
A: Its inhibition at 30 µg/mL is 20.2%.

Q: Which “Apoptosis induction in small intestine crypt cells” value [3] does the source give for `Cc1c2oc3c(C)ccc(C(=O)N[C@@H]4C(=O)N[C@H](C(C)C)C(=O)N5CCC[C@H]5C(=O)N(C)CC(=O)N(C)[C@@H](C(C)C)C(=O)O[C@@H]4C)c3nc-2c(C(=O)N[C@@H]2C(=O)N[C@H](C(C)C)C(=O)N3CCC[C@H]3C(=O)N(C)CC(=O)N(C)[C@@H](C(C)C)C(=O)O[C@@H]2C)c(N)c1=O` [actinomycin D] (I: T[dV]P[Sar][NMeV] / II: T[dV]P[Sar][NMeV]; ester I:1-I:C, II:1-II:C; linker I:N-II:N via Actinocin(9to1)) here?
A: Its value is “apoptosis induction”.

Q: What about the Repression of apoptosis (apoptosis) of the same molecule?
A: Its Repression of apoptosis is “capable of repressing apoptosis”.

Q: And the “Apoptosis of lymphocytic tumor cells” value (lymphocytic tumor cells)?
A: The value was “potentiates”.

Q: And the “Apoptosis induction in HL-60 cells” value (HL-60 cells [4])?
A: The value was “apoptosis induction”.

Q: Which results are given for “NGF: nerve growth factor (NGF, Wako Pure Chemical)”?
A: Programmed death of sympathetic nerve cells (sympathetic nerve cells): can inhibit programmed death of sympathetic nerve cells; Nerve cell death in development stage (nerve cells): complete inhibition of nerve cell death; Recovery from learning disorder [5]: can recover from learning disorder; Formation of nerve-like processes, NGF stimulation (PC12 cells): formation of nerve-like processes

Q: Which results are given for `COc1ccc(C(=O)N2CCN(c3ccc4[nH]c(=O)ccc4c3)CC2)cc1OC` [Compound 7, 6-[4-(3,4-Dimethoxybenzoyl)-1-piperazinyl]carbostyril]?
A: Induction of differentiation promoting effect (HL-60 cells [1]): 898; inhibition at 30 µg/mL (HL-60 cells [2]): 24.1%

Q: Which “Induction of differentiation promoting effect” value (HL-60 cells [1]) does the source give for `COc1ccc(C(=O)N2CCN(c3cccc4c3NC(=O)CC4)CC2)cc1OC` [Compound 8, 8-[4-(3,4-Dimethoxybenzoyl)-1-piperazinyl]-3,4-dihydrocarbostyril] here?
A: The value was 344.

Q: And the inhibition at 30 µg/mL (HL-60 cells [2])?
A: The inhibition at 30 µg/mL was 24.9%.

Q: With `COc1cc(C(=O)N2CCN(c3ccc4c(c3)NC(=O)CC4)CC2)cc(OC)c1OC` [Compound 3, 7-[4-(3,4,5-Trimethoxybenzoyl)-1-piperazinyl]-3,4-dihydrocarbostyril] as the molecule, how does the “Induction of differentiation promoting effect” value (HL-60 cells [1]) read?
A: Its value is 384.

Q: For `C[C@@H]1C[C@@H]([C@H](O)CC2CC(=O)NC(=O)C2)C(=O)[C@@H](C)C1` [cycloheximide], which “Apoptosis induction in acute leukemia cells” value (acute leukemia cells) is on record?
A: The value was “apoptosis induction”.

Q: And the Repression of apoptosis (apoptosis)?
A: Its Repression of apoptosis is “capable of repressing apoptosis”.

Q: What about the “Apoptosis of lymphocytic tumor cells” value (lymphocytic tumor cells) of the same molecule?
A: The value was “suppresses”.

Q: What about the “Apoptosis induction in HL-60 cells” value (HL-60 cells [4]) of the same molecule?
A: Its value is “apoptosis induction”.

Q: Which “Induction of differentiation promoting effect” value (HL-60 cells [1]) does the source give for `COc1ccc(C(=O)N2CCN(c3cccc4c3CCC(=O)N4)CC2)cc1OC` [Compound 6, 5-[4-(3,4-Dimethoxybenzoyl)-1-piperazinyl]-3,4-dihydrocarbostyril] here?
A: The value was 303.

Q: With bcl-2 gene product: bcl-2 gene product as the molecule, how does the Repression of apoptosis (apoptosis) read?
A: The Repression of apoptosis was “repress apoptosis”.

Q: For `CCOc1ccc(C(=O)N2CCN(c3ccc4c(c3)CCC(=O)N4)CC2)cc1` [Compound 5, 6-[4-(4-Ethoxybenzoyl)-1-piperazinyl]-3,4-dihydrocarbostyril], which “Induction of differentiation promoting effect” value (HL-60 cells [1]) is on record?
A: Its value is 232.

Q: For “GM-CSF: granulocyte macrophage colony stimulating factor”, which Repression of apoptosis (apoptosis) is on record?
A: The Repression of apoptosis was “repress apoptosis”.

B1: lymphotoxin (LT): lymphotoxin (LT) (protein, UniProt P01374 35-205, looked up)
Lymphotoxin-alpha: LPGVGLTPSAAQTARQHPKMHLAHSTLKPAAHLIGDPSKQNSLLWRANTDRAFLQDGFSLSNNSLLVPTSGIYFVYSQVVFSGKAYSPKATSSPLYLAHEVQLFSSQYPFHVPLLSSQKMVYPGLQEPWLHSMYHGAAFQLTQGDQLSTHTDGIPHLVLSPSTVFFGAFAL
Q: Which Induction of apoptosis (apoptosis) does the source give for B1 here?
A: Its Induction of apoptosis is “induced”.

B2: G-CSF: granulocyte colony stimulating factor (protein, UniProt P09919 31-207, looked up)
Granulocyte …: TPLGPASSLPQSFLLKCLEQVRKIQGDGAALQEKLVSECATYKLCHPEELVLLGHSLGIPWAPLSSCPSQALQLAGCLSQLHSGLFLYQGLLQALEGISPELGPTLDTLQLDVADFATTIWQQMEELGMAPALQPTQGAMPAFASAFQRRAGGVLVASHLQSFLEVSYRVLRHLAQP
Q: Which Repression of apoptosis (apoptosis) does the source give for B2 here?
A: The Repression of apoptosis was “repress apoptosis”.
